We go through 1 compound from patent US20170119683A1, “BIOPOLYMER-ENCAPSULATED GLYCOSYL TRANSFERASE INHIBITOR COMPOSITIONS AND METHODS FOR TREATING DIABETES AND CARDIAC INDICATIONS” (The Johns Hopkins University, priority 2014, published 2017).

Each structure is given as a SMILES string. Entries after “also recorded” stand apart in the source; their conditions may differ.

In data set [1] the test system is Apolipoprotein E-/- mice. As to the kind of experiment: Example 6: ox-LDL, GalT-V and amyloid-β (ELISA, Western) in ApoE-/- mice fed HFHC diet. It is filed as in vivo. As to the method: Testing of the impact of D-PDMP in a mouse AD model and quantification of biomarkers in such studies was performed in the following manner. […] These mice were fed either a normal diet (control) or a high-fat high-cholesterol (HFHC) diet. While a subset of the mice fed the high-fat diet was retained as a placebo group, others were treated with 5 mg/kg (mpk) or 10 mpk of the D-PDMP drug. After euthanizing these animals, tissue and blood samples were stored for further biochemical analysis. For the quantification of the biomarkers, […] (ELISA) was used. For the measurement of ox-LDL, mouse serum was coated onto the bottom of a well. […] A secondary antibody was administered to that attached specifically to the primary antibody. This secondary antibody presented an attached reporter, allowing amounts of ox-LDL could be quantified. A substrate was bound to the reporter and fluoresced. […] ELISA was also employed for quantifying levels of GalT-V and amyloid-β, using different target-specific antibodies.
(In general: An ELISA detects its analyte on a solid surface through an enzyme-linked reagent.)

The conditions of data set [2]: in vivo.
The subject of data set [3] is adipocytes. As to the kind of experiment: TNF induced insulin resistance in adipocytes. It counts as cell-based. To be noted: chronic exposure to low levels of TNF. An excerpt: Additionally, adipocytes were made insulin resistant by chronic exposure to low levels of tumor necrosis factor (TNF). […] This latter patient population is estimated at 10 million in the US alone.

Data set [4] has as its system apoE -/- mice fed a high fat and high cholesterol (HFHC) diet. As to the kind of experiment: aortic histopathology and ultrasound imaging, atherosclerosis in apoE -/- mice fed HFHC diet. To be noted: FIG. 2B. It counts as in vivo.
In data set [5] the test system is cultured human arterial cell monolayer. As to the kind of experiment: in vitro model of wounding in cultured arterial cell monolayer. It is filed as cell-based.
The conditions of data set [6]: native, not encapsulated.
The conditions of data set [7]: in vivo; cited from earlier work.
Setting [8] is: 5 mpk and 10 mpk by injection, not biopolymer-encapsulated.

With `CCCCCCCCCC(=O)N[C@H](CN1CCOCC1)[C@H](O)c1ccccc1.Cl` [D-PDMP, D-threo-1-phenyl-2-decanoylamino-3-morpholino-1-propanol], in data set [1] (setting [8]), the “levels of GalT-V” value is reported as “dose-dependently decreased; also recorded: decreased levels” and the “levels of ox-LDL” value was “dose-dependently decreased; also recorded: decreased levels”. Further, the amyloid-β levels result in data set [1] (5 mpk and 10 mpk by injection, not biopolymer-encapsulated, brain tissue) is recorded as “dose-dependently decreased; also recorded: reduction”. For the same compound, the “levels of atherosclerosis and Alzheimer's disease biomarkers” value in data set [1] (ApoE -/- model mice) is “markedly reduced”. For the same compound, in data set [2], the toxicity result is recorded as “no toxicity”. The “TNF induced impairment in insulin signaling” value in data set [3] is “reversed”. Further, in data set [4], the “returning aortic intima-media thickness of the ascending aorta to control levels” value is “equally efficacious”. The wound healing entry in data set [5] is given as “facilitated healing”. Further, in data set [6], the “residence time in the body of the mice” value is “about an hour”. Further, the half-life entry in data set [7] is “approximately 52 minutes”.
